Read-outs that look alike come from different tables or passages of the source.

One test has as its target CYP3A4 (Homo sapiens, UniProt P08684). As to the kind of experiment: Luminescence titration of solubilized CYP3A4 with type I and type II ligands.
In test [1] the target is T1, CYP2C9 (Homo sapiens, UniProt P11712). To be noted: read-out: KS (reported value); ref Hutzler et al. 31; cited from earlier work.
The target of test [2] is T1, CYP2C9. The test can be described thus: Luminescence titration of solubilized CYP2C9 with type I and type II ligands.
The next test has as its target T2, P450cam (Pseudomonas putida, UniProt P00183).
T2 sequence (P00183 1-415): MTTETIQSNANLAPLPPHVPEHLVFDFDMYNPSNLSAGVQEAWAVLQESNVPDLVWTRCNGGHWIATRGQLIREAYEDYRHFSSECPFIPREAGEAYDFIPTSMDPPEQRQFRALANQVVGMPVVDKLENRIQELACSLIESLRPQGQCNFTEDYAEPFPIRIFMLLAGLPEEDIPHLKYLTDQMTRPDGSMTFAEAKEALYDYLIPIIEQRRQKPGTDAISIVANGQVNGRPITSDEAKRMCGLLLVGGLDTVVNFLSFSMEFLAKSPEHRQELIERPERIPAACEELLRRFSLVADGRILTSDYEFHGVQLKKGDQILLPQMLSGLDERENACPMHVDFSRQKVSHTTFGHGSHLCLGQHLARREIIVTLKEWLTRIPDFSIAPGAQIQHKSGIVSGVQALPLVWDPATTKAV
To be noted: read-out: KS (literature values); depending on the stereoisomer used; cited from earlier work.

T1 sequence (P11712 whole entry): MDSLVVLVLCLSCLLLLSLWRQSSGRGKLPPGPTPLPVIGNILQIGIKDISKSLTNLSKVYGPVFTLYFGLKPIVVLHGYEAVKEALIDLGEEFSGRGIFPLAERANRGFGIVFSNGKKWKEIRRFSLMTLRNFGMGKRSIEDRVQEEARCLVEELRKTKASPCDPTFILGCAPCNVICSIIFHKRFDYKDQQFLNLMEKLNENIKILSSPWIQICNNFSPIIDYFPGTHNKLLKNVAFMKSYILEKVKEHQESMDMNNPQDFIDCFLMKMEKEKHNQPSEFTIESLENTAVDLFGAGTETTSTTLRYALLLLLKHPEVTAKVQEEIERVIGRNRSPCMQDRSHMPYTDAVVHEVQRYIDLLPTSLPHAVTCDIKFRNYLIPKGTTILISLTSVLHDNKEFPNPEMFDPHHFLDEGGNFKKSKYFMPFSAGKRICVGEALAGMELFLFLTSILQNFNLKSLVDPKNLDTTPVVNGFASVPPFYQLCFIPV
Chain of CYP3A4 (P08684 whole entry): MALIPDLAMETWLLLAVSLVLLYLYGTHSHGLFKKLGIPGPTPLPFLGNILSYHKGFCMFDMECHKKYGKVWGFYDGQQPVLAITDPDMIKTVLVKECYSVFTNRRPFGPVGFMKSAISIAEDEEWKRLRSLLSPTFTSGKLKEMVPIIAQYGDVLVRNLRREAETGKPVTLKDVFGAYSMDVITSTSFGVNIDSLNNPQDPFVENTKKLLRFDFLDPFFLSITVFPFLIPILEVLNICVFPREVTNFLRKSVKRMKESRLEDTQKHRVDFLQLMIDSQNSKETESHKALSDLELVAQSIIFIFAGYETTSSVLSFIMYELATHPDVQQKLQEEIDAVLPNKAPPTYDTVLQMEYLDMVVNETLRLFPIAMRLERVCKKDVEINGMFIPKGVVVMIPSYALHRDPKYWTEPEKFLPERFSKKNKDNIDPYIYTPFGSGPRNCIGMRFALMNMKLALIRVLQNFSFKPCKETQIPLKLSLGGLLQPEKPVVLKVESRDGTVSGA

On CYP3A4, `C[C@]12CC[C@H]3[C@@H](CCC4=CC(=O)CC[C@@]43C)[C@@H]1CC[C@@H]2O` [testosterone] showed a Kd of 30.5 ± 6.5 µM.

As for `CC(C(=O)O)c1ccc(-c2ccccc2)c(F)c1` (centres unmarked) [flurbiprofen], the Kd was 14.1 µM on CYP2C9 [1] and 20.2 ± 1.1 µM at CYP2C9 [2].

In the case of `CC12CCC(CC1=O)C2(C)C` (centres unmarked) [camphor], at P450cam, the Kd was 1.6 to 2.6 µM.

Consider `O=C(Nc1ccc2ccccc2c1)c1cc(-c2ccncc2)nc2ccccc12` [QC, N-(naphthalene-2-yl)-2-(pyridine-4-yl)quinoline-4-carboxamide], for which the Kd on CYP2C9 [2] was 0.11 ± 0.06 µM.

(Values after paper PMC5048684 (The journal of physical chemistry. B, 2016).)
